In patent publication US12371454B2, “Cyclic peptide compound having Kras inhibitory action” (priority 2019, dated 2025):
Starred links: 1 amine or outer side, 2 acyl side, 3 side chain; linkers in the order of their positions; H or OH if unused. Positions of bridges follow the written chain, without caps; N, C: chain ends. Non-standard residues stand in square brackets, D forms with d. Residues, ends and D or L forms follow the SMILES beside them. *: point of attachment. hPhe(3,5-F2-4-CF3) = N[C@@H](CCc1cc(F)c(C(F)(F)F)c(F)c1)C(=O)O; hPhe(3-Cl-4-CF3) = N[C@@H](CCc1ccc(C(F)(F)F)c(Cl)c1)C(=O)O; NMePhe(4-CF3) = CN[C@@H](Cc1ccc(C(F)(F)F)cc1)C(=O)O; hPhe(4-CF3) = N[C@@H](CCc1ccc(C(F)(F)F)cc1)C(=O)O; NMePhe(4-Cl) = CN[C@@H](Cc1ccc(Cl)cc1)C(=O)O; NMedβ3hAla = C[C@H](CC(=O)[*:2])N(C)[*:1]; NMeGly(cPent) = CN[C@H](C(=O)O)C1CCCC1; Pro(4,4-F2) = O=C(O)[C@@H]1CC(F)(F)CN1; Met(O2) = CS(=O)(=O)CC[C@H](N)C(=O)O; NMeCha = CN[C@@H](CC1CCCCC1)C(=O)O; NMeChg = CN[C@H](C(=O)O)C1CCCCC1; NMeD = CN[C@@H](CC(=O)O)C(=O)O; NMeL = CN[C@@H](CC(C)C)C(=O)O; Chg = N[C@H](C(=O)O)C1CCCCC1; NMePra = C#CC[C@H](NC)C(=O)O; NMeV = CN[C@H](C(=O)O)C(C)C; d(β3hA) = C[C@@H](N)CC(=O)O; dIva = CC[C@@](C)(N)C(=O)O; Pip = O=C(O)[C@@H]1CCCCN1; dPip = O=C(O)[C@H]1CCCCN1; NMeA = CN[C@@H](C)C(=O)O; Piperidide = C1CCN(*)CC1; Ac5c = NC1(C(=O)O)CCCC1; Aze = O=C(O)[C@@H]1CCN1; Ac3c = NC1(C(=O)O)CC1; Aib = CC(C)(N)C(=O)O; Sar = CNCC(=O)O

Molecular target: T1, Kras and SOS1 (biotin-tagged human Kras loaded with GDP, His-tagged human SOS1) (Homo sapiens, UniProt P01116, G12D)
T1 construct: made in house; host or cells: E. coli (stated for Kras only)
Assay: Protein-protein interaction inhibition between Kras and SOS1 (KrasGl2D-SOS PPI) using AlphaScreen
Assay type: binding
Conditions: AlphaScreen; biotin-tagged human Kras loaded with GDP, His-tagged human SOS1; read-out: KRAS G12D-SOS PPI IC50
Summary of the method: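 Kras was produced in E. coli, purified, then loaded with GDP. It was paired via streptavidin acceptor beads with His-SOS1 held on nickel donor beads, and proximity signal at 520-620 nm was read after 680 nm illumination.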

T1 sequence (P01116 1-188 isoform P01116-2 G12D): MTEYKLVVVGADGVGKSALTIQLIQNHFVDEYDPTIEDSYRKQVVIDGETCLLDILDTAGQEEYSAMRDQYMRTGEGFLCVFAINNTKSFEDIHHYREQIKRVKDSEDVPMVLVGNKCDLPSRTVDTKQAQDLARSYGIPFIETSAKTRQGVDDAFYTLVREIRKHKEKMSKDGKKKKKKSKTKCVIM

Q: CC[C@H](C)[C@@H]1NC(=O)[C@H](C)N(C)C(=O)C[C@@H](C)NC(=O)[C@H](C(C)C)N(C)C(=O)C2(CCCC2)NC(=O)[C@@H]2CCCN2C(=O)[C@H](CCc2ccc(C(F)(F)F)c(Cl)c2)NC(=O)[C@H]2CCCCN2C(=O)[C@H](CC2CCCCC2)N(C)C(=O)[C@@H]2CCN2C(=O)CN(C)C1=O [Compound 267] (cyclo([Ac5c][NMeV][d(β3hA)][NMeA]I[Sar][Aze][NMeCha][dPip][hPhe(3-Cl-4-CF3)]P)) was tested. Which IC50 did it give?
A: The IC50 was 0.13 µM.

Q: How did the IC50 turn out when CC[C@H](C)[C@@H]1NC(=O)[C@H](CC(C)C)N(C)C(=O)C[C@@H](C)N(C)C(=O)[C@H](C(C)C)N(C)C(=O)C2(CC2)NC(=O)[C@@H]2CCCN2C(=O)[C@H](CCc2ccc(C(F)(F)F)c(Cl)c2)NC(=O)CN(C)C(=O)[C@H](CC2CCCCC2)N(C)C(=O)CN(C)C(=O)CN(C)C1=O [Compound 268] (cyclo([Ac3c][NMeV][NMedβ3hAla][NMeL]I[Sar][Sar][NMeCha][Sar][hPhe(3-Cl-4-CF3)]P)) was run?
A: Its IC50 is 0.018 µM.

Q: CC[C@H](C)[C@@H]1NC(=O)[C@H](CC(C)C)N(C)C(=O)C[C@@H](C)N(C)C(=O)[C@H](C2CCCC2)N(C)C(=O)C2(CCCC2)NC(=O)[C@@H]2CC(F)(F)CN2C(=O)[C@H](CCc2cc(F)c(C(F)(F)F)c(F)c2)NC(=O)CN(C)C(=O)[C@H](Cc2ccc(C(F)(F)F)cc2)N(C)C(=O)CN(C)C(=O)CN(C)C1=O [Compound 269] (cyclo([Ac5c][NMeGly(cPent)][NMedβ3hAla][NMeL]I[Sar][Sar][NMePhe(4-CF3)][Sar][hPhe(3,5-F2-4-CF3)][Pro(4,4-F2)])) was tested. Which IC50 did it give?
A: Its IC50 is 0.0034 µM.

Q: How did the IC50 turn out when CC[C@H](C)[C@@H]1NC(=O)[C@H](CC(C)C)N(C)C(=O)C[C@@H](C)NC(=O)[C@H](C(C)C)N(C)C(=O)[C@@](C)(CC)NC(=O)[C@@H]2CCCN2C(=O)[C@H](CCc2ccc(C(F)(F)F)c(Cl)c2)NC(=O)CN(C)C(=O)[C@H](CC2CCCCC2)N(C)C(=O)CN(C)C(=O)CN(C)C1=O [Compound 275] (cyclo(I[Sar][Sar][NMeCha][Sar][hPhe(3-Cl-4-CF3)]P[dIva][NMeV][d(β3hA)][NMeL])) was run?
A: The IC50 was 0.046 µM.

Q: For CC[C@H](C)[C@@H]1NC(=O)[C@H](CC(C)C)N(C)C(=O)C[C@@H](C(=O)N2CCCCC2)N(C)C(=O)[C@H](C2CCCCC2)N(C)C(=O)C2(CCCC2)NC(=O)[C@@H](C)NC(=O)[C@H](CCc2ccc(C(F)(F)F)c(Cl)c2)NC(=O)CN(C)C(=O)[C@H](CC2CCCCC2)N(C)C(=O)CN(C)C(=O)CN(C)C1=O [Compound 277] ([NMeL]I[Sar][Sar][NMeCha][Sar][hPhe(3-Cl-4-CF3)][dA][Ac5c][NMeChg][NMeD]-Piperidide; lactam N-11), which IC50 is on record?
A: The IC50 was 0.0051 µM.

Q: How did the IC50 turn out when CC(C)C[C@H]1C(=O)N[C@@H](C2CCCCC2)C(=O)N(C)CC(=O)N(C)CC(=O)N(C)[C@@H](CC2CCCCC2)C(=O)N(C)CC(=O)N[C@@H](CCc2ccc(C(F)(F)F)c(Cl)c2)C(=O)N2CCC[C@H]2C(=O)NC2(CCCC2)C(=O)N(C)[C@@H](C(C)C)C(=O)N(C)[C@H](C(=O)N2CCCCC2)CC(=O)N1C [Compound 281] ([NMeL][Chg][Sar][Sar][NMeCha][Sar][hPhe(3-Cl-4-CF3)]P[Ac5c][NMeV][NMeD]-Piperidide; lactam N-11) was run?
A: The IC50 was 0.0078 µM.

Q: With CC(C)C[C@H]1C(=O)N[C@@H](CCS(C)(=O)=O)C(=O)N(C)CC(=O)N(C)CC(=O)N(C)[C@@H](CC2CCCCC2)C(=O)N(C)CC(=O)N[C@@H](CCc2ccc(C(F)(F)F)c(Cl)c2)C(=O)N2CCC[C@H]2C(=O)NC2(CCCC2)C(=O)N(C)[C@@H](C2CCCCC2)C(=O)N(C)[C@H](C(=O)N2CCCCC2)CC(=O)N1C [Compound 283] ([NMeL][Met(O2)][Sar][Sar][NMeCha][Sar][hPhe(3-Cl-4-CF3)]P[Ac5c][NMeChg][NMeD]-Piperidide; lactam N-11) as the molecule, how does the IC50 read?
A: Its IC50 is 0.0068 µM.

Q: Which IC50 does the source give for C#CC[C@H]1C(=O)N(C)[C@H](C(=O)N2CCCCC2)CC(=O)N(C)[C@@H](CC(C)C)C(=O)N[C@@H]([C@@H](C)CC)C(=O)N(C)CC(=O)N(C)CC(=O)N(C)[C@@H](CC2CCCCC2)C(=O)N(C)CC(=O)N[C@@H](CCc2ccc(C(F)(F)F)c(Cl)c2)C(=O)N2CCC[C@H]2C(=O)NC2(CCCC2)C(=O)N1C [Compound 284] ([NMeL]I[Sar][Sar][NMeCha][Sar][hPhe(3-Cl-4-CF3)]P[Ac5c][NMePra][NMeD]-Piperidide; lactam N-11) here?
A: The IC50 was 0.071 µM.

Q: For CC[C@H](C)[C@@H]1NC(=O)[C@@H]2CCCCN2C(=O)C[C@@H](C)NC(=O)[C@H](CC(C)C)N(C)C(=O)C(C)(C)NC(=O)[C@H](CC(C)C)N(C)C(=O)[C@H](CCc2ccc(C(F)(F)F)cc2)NC(=O)CN(C)C(=O)[C@H](Cc2ccc(Cl)cc2)N(C)C(=O)CN(C)C(=O)CN(C)C1=O [Compound 286] (cyclo([Aib][NMeL][d(β3hA)][Pip]I[Sar][Sar][NMePhe(4-Cl)][Sar][hPhe(4-CF3)][NMeL])), which IC50 is on record?
A: The IC50 was 0.096 µM.
